Here are results for three molecules from publication PMC7584652 (Nature Communications, 2020).

Holding throughout (details): labelled compound ([5′-α-32P]); 10 mM Tris pH 7.5, 100 mM NaCl, 5 mM MgCl2, room temperature
One experiment concerns the target GuaC (Bacillus anthracis, UniProt Q81JJ9).
A further experiment addresses T1, RbgA (Bacillus anthracis, UniProt A0A6L8PZ03).
T1 construct: gene GBAA_3976

For a further experiment, the target named is PurR (Bacillus anthracis, UniProt A0AAC8NAH2).
A further experiment concerns the target T2, YjbM (SAS1) (Bacillus anthracis, UniProt A0A2P0HBB4).
T2 construct: gene BA_1212

`Nc1nc2c(ncn2[C@@H]2O[C@H](COP(=O)(O)O)[C@@H](OP(=O)(O)OP(=O)(O)O)[C@H]2O)c(=O)[nH]1` [pGpp, guanosine-5′-monophosphate-3′-diphosphate]: at GuaC, the “DRaCALA screen in E. coli overexpression lysate” value (“DRaCALA screen” below) was “including HprT, Xpt, Gmk, and GuaC, bound both pGpp and (p)ppGpp”. As for `Nc1nc2c(ncn2[C@@H]2O[C@H](COP(=O)(O)OP(=O)(O)O)[C@@H](OP(=O)(O)OP(=O)(O)O)[C@H]2O)c(=O)[nH]1` [ppGpp], the “DRaCALA screen” value was “ribosome and translation regulatory GTPases (HflX, Der, Obg, RbgA, TrmE, and Era)” on RbgA; “purine nucleotide synthesis proteins (Hpt1, Xpt, Gmk, GuaC, PurA, and PurR)” at PurR. As to `Nc1nc2c(ncn2[C@@H]2O[C@H](COP(=O)(O)OP(=O)(O)OP(=O)(O)O)[C@@H](OP(=O)(O)OP(=O)(O)O)[C@H]2O)c(=O)[nH]1` [pppGpp], at YjbM (SAS1), the “DRaCALA screen” value is reported as “several proteins bind to pppGpp but not ppGpp, including the small alarmone synthetase YjbM”.
